Test results published in PubChem BioAssay AID548 (The Scripps Research Institute Molecular Screening Center, 2006).
Calls of active or inactive are those of the source. The rule behind the calls is not given here.

Target: cAMP-dependent protein kinase catalytic subunit alpha (Homo sapiens) (UniProt P17612)
Assay: PubChem AID 548
Settings: Purified PKA, Kemptide, Kinase-Glo ATP luminescence

O/N=C/c1c[nH]c2ccccc12
IC50: 34.4 µM

Nc1c(S(=O)(=O)c2cccc(Cl)c2)c2nc3ccccc3nc2n1/N=C/c1ccc(O)c(O)c1
IC50: > 59.6 µM (inactive)
